These results are taken from patent US11786584B2, “Peptides and combination of peptides for use in immunotherapy against prostate cancer and other cancers” (Immatics Biotechnologies GmbH, priority 2015, dated 2023).

One test concerns CD8+ T cells. The experiment in a line: In vitro T-cell priming assay with aAPCs loaded with peptide/MHC and anti-CD28, multimer readout. The settings on record: in vitro immunogenicity; for Wells positive [%]: Table 15B; for donors / wells: Table 15A; for donors: positive donors; for wells: positive wells. Format: cell-based, human. The text has this: In order to obtain information regarding the immunogenicity of the TUMAPs of the present invention, the inventors performed investigations using an in vitro T-cell priming assay based on repeated stimulations of CD8+ T cells with artificial antigen presenting cells (aAPCs) loaded with peptide/MHC complexes and anti-CD28 antibody.
In order to perform in vitro stimulations by artificial antigen presenting cells loaded with peptide-MHC complex (pMHC) and anti-CD28 antibody, the inventors first isolated CD8+ T cells from fresh HLA-A*02 leukapheresis products via positive selection using CD8 microbeads (Miltenyi Biotec, Bergisch-Gladbach, Germany) of healthy donors obtained from the University clinics Mannheim, Germany, after informed consent.
PBMCs and isolated CD8+ lymphocytes were incubated in T-cell medium (TCM) until use consisting of RPMI-Glutamax (Invitrogen, Karlsruhe, Germany) supplemented with 10% heat inactivated human AB serum (PAN-Biotech, Aidenbach, Germany), 100 U/ml Penicillin/100 μg/ml Streptomycin (Cambrex, Cologne, Germany), 1 mM sodium pyruvate (CC Pro, Oberdorla, Germany), 20 μg/ml Gentamycin (Cambrex). 2.5 ng/ml IL7 (PromoCell, Heidelberg, Germany) and 10 U/ml IL-2 (Novartis Pharma, Nurnberg, Germany) were also added to the TCM at this step.
Generation of pMHC/anti-CD28 coated beads, T-cell stimulations and readout was performed in a highly defined in vitro system using four different pMHC molecules per stimulation condition and 8 different pMHC molecules per readout condition.
The purified co-stimulatory mouse IgG2a anti human CD28 Ab 9.3 (Jung et al., 1987) was chemically biotinylated using Sulfo-N-hydroxysuccinimidobiotin as recommended by the manufacturer (Perbio, Bonn, Germany). Beads used were 5.6 μm diameter streptavidin coated polystyrene particles (Bangs Laboratories, Illinois, USA).
800.000 beads/200 μl were coated in 96-well plates in the presence of 4×12.5 ng different biotin-pMHC, washed and 600 ng biotin anti-CD28 were added subsequently in a volume of 200 μl. Stimulations were initiated in 96-well plates by co-incubating […] CD8+ T cells with 2×10^5 washed coated beads in 200 μl TCM supplemented with 5 ng/ml IL-12 (PromoCell) for 3 days at 37° C. Half of the medium was then exchanged by fresh TCM supplemented with 80 U/ml IL-2 and incubating was continued for 4 days at 37° C. This stimulation cycle was performed for a total of three times. For the pMHC multimer readout using 8 different pMHC molecules per condition, a two-dimensional combinatorial coding approach was used as previously described (Andersen et al., 2012) with minor modifications encompassing coupling to 5 different fluorochromes. Finally, multimeric analyses were performed by staining the cells with Live/dead near IR dye (Invitrogen, Karlsruhe, Germany), CD8-FITC antibody clone SK1 (BD, Heidelberg, Germany) and fluorescent pMHC multimers. For analysis, a BD LSRII SORP cytometer equipped with appropriate lasers and filters was used. Peptide specific cells were calculated as percentage of total CD8+ cells. Evaluation of multimeric analysis was done using the FlowJo software (Tree Star, Oregon, USA). In vitro priming of specific multimer+ CD8+ lymphocytes was detected by comparing to negative control stimulations.

A further test addresses HLA-A*02 (Homo sapiens, UniProt P04439, D140Y/D185E/D98H/E176V/E277Q/G131W/G231S/I119V/I121R/I166T/I218V/L300P/N151K/N90K/P208A/P217A/Q86G/Q94H/R138H/R169H). The test is described as follows: MHC binding assay by UV-ligand exchange and beta2m ELISA. The settings on record: peptide exchange yield. From the text:
(§1) Candidate peptides for T cell based therapies according to the present invention were further tested for their MHC binding capacity (affinity). The individual peptide-MHC complexes were produced by UV-ligand exchange, where a UV-sensitive peptide is cleaved upon UV-irradiation, and exchanged with the peptide of interest as analyzed. Only peptide candidates that can effectively bind and stabilize the peptide-receptive MHC molecules prevent dissociation of the MHC complexes. To determine the yield of the exchange reaction, an ELISA was performed based on the detection of the light chain (β2m) of stabilized MHC complexes. The assay was performed as generally described in Rodenko et al. (Rodenko et al., 2006).
(§2) 96 well MAXISorp plates (NUNC) were coated over night with 2 ug/ml streptavidin in PBS at room temperature, washed 4× and blocked for 1 h at 37° C. in 2% BSA containing blocking buffer. Refolded HLA-A*02:01/MLA-001 monomers served as standards, covering the range of 15-500 ng/ml. Peptide-MHC monomers of the UV-exchange reaction were diluted 100 fold in blocking buffer. Samples were incubated for 1 h at 37° C., washed four times, incubated with 2 ug/ml HRP conjugated anti-β2m for 1 h at 37° C., washed again and detected with TMB solution that is stopped with […]. Absorption was measured at 450 nm. Candidate peptides that show a high exchange yield (preferably higher than 50%, most preferred higher than 75%) are generally preferred for a generation and production of antibodies or fragments thereof, and/or T cell receptors or fragments thereof, as they show sufficient avidity to the MHC molecules and prevent dissociation of the MHC complexes.

The test system of a further test is HLA-A*24. The test is described as above. Also noted: species or system human. The settings on record: peptide exchange yield.
Text: as §1, §2

As for “1 (VTAQIGIVAV; listed as Homo sapiens) [compound 1]”, in the test with CD8+ T cells, the “Wells positive [%]” value is on record as “++++ (>=70% = ++++)”. Moreover, the Peptide exchange result with HLA-A*02 is recorded as “++++ (>75% = ++++)”.

In the case of “2 (SMLGEEIQL; listed as Homo sapiens) [compound 2]”, the Peptide exchange result with HLA-A*02 is on record as “++++ (>75% = ++++)”.

For “3 (HLLEDIAHV; listed as Homo sapiens) [compound 3]”, the “Wells positive [%]” value in the test with CD8+ T cells is given as “++ (20%-49% = ++)”. For the same substance, the Peptide exchange entry with HLA-A*02 is reported as “++++ (>75% = ++++)”.

Take “4 (ALLTFVWKL; listed as Homo sapiens) [compound 4]”: in the test with HLA-A*02, the Peptide exchange result was “++++ (>75% = ++++)”.

Regarding “5 (KIFSRLIYI; listed as Homo sapiens) [compound 5]”, the “Wells positive [%]” value with CD8+ T cells is recorded as “+++ (50%-69%= +++)”. The Peptide exchange result with HLA-A*02 is “+++ (>50 = +++)”.

As to “7 (TLLQVVGVVSV; listed as Homo sapiens) [compound 7]”, in the test with HLA-A*02, the Peptide exchange entry is reported as “++ (>20% = ++)”.

As for “9 (GMLNEAEGKAIKL; listed as Homo sapiens) [compound 9]”, the Peptide exchange result in the test with HLA-A*02 is on record as “+++ (>50 = +++)”.

Take “10 (TLWRGPVVV; listed as Homo sapiens) [compound 10]”: the Peptide exchange entry in the test with HLA-A*02 is listed as “+++ (>50 = +++)”.

Regarding “11 (YLEEECPAT; listed as Homo sapiens) [compound 11]”, the Peptide exchange entry with HLA-A*02 is on record as “++ (>20% = ++)”.

“13 (AMAPNHAVV; listed as Homo sapiens) [compound 13]”: the Peptide exchange result in the test with HLA-A*02 was “+++ (>50 = +++)”.

Take “14 (KMDEASAQLL; listed as Homo sapiens) [compound 14]”: in the test with HLA-A*02, the Peptide exchange result was “++ (>20% = ++)”.

Consider “15 (KMDEASAQLLA; listed as Homo sapiens) [compound 15]”, for which, in the test with HLA-A*02, the Peptide exchange result is on record as “+++ (>50 = +++)”.

“16 (KMDEASAQL; listed as Homo sapiens) [compound 16]”: in the test with HLA-A*02, the Peptide exchange entry is “+++ (>50 = +++)”.

As to “17 (RLGIKPESV; listed as Homo sapiens) [compound 17]”, in the test with CD8+ T cells, the donors entry is on record as “++++ (>=70% = ++++)” and the wells result is “++ (20%-49% = ++)”.

For the substance “20 (SLLSHQVLL; listed as Homo sapiens) [compound 20]”, the Peptide exchange entry with HLA-A*02 was “+++ (>50 = +++)”.

“21 (YLNDSLRHV; listed as Homo sapiens) [compound 21]”: in the test with HLA-A*02, the Peptide exchange entry is reported as “++ (>20% = ++)”.

On to “22 (SLYDSIAFI; listed as Homo sapiens) [compound 22]”, for which the Peptide exchange result with HLA-A*02 is given as “++++ (>75% = ++++)”.

In the case of “24 (SYNDALLTF; listed as Homo sapiens) [compound 24]”, in the test with CD8+ T cells, the “Wells positive [%]” value was “+++ (50%-69%= +++)”. Also, the Peptide exchange result in the test with HLA-A*24 was “+++ (>50 = +++)”.

“25 (IYEPYLAMF; listed as Homo sapiens) [compound 25]”: in the test on HLA-A*24, the Peptide exchange result is “+++ (>50 = +++)”.

In the case of “26 (RYADDTFTPAF; listed as Homo sapiens) [compound 26]”, in the test on HLA-A*24, the Peptide exchange result is reported as “+++ (>50 = +++)”.

Consider “27 (GYLQGLVSF; listed as Homo sapiens) [compound 27]”, for which the “Wells positive [%]” value in the test on CD8+ T cells is on record as “++ (20%-49% = ++)”. Also, in the test with HLA-A*24, the Peptide exchange entry is given as “++++ (>75% = ++++)”.

On to “28 (YYAKEIHKF; listed as Homo sapiens) [compound 28]”, for which, in the test with HLA-A*24, the Peptide exchange result is on record as “++++ (>75% = ++++)”.

Turning to “29 (RYGSPINTF; listed as Homo sapiens) [compound 29]”, in the test on CD8+ T cells, the donors result was “+++ (50%-69% = +++)” and the wells result is “+ (<20% = +)”. Moreover, in the test on HLA-A*24, the Peptide exchange entry is on record as “+++ (>50 = +++)”.

On to “30 (SYSPAHARL; listed as Homo sapiens) [compound 30]”, for which, in the test with HLA-A*24, the Peptide exchange entry is given as “+++ (>50 = +++)”.

Take “31 (AYTSPPSFF; listed as Homo sapiens) [compound 31]”: the Peptide exchange result with HLA-A*24 was “+++ (>50 = +++)”.

On to “32 (PYQLNASLFTF; listed as Homo sapiens) [compound 32]”, for which, in the test with HLA-A*24, the Peptide exchange result is “++++ (>75% = ++++)”.

In the case of “33 (QYGKDFLTL; listed as Homo sapiens) [compound 33]”, the Peptide exchange entry in the test with HLA-A*24 is recorded as “+++ (>50 = +++)”.

For the substance “34 (AFSPDSHYLLF; listed as Homo sapiens) [compound 34]”, in the test on CD8+ T cells, the donors entry is given as “+++ (50%-69% = +++)” and the wells result is recorded as “+ (<20% = +)”. For the same substance, the Peptide exchange entry in the test on HLA-A*24 was “+++ (>50 = +++)”.

Regarding “35 (IYTRVTYYL; listed as Homo sapiens) [compound 35]”, in the test on CD8+ T cells, the donors entry is “++++ (>=70% = ++++)” and the wells result was “++ (20%-49% = ++)”. In addition, the Peptide exchange result in the test on HLA-A*24 was “++ (>20% = ++)”.

“36 (RYMWINQEL; listed as Homo sapiens) [compound 36]”: the Peptide exchange entry in the test with HLA-A*24 was “+++ (>50 = +++)”.

Take “41 (RYLQKIEEF; listed as Homo sapiens) [compound 41]”: the Peptide exchange result in the test with HLA-A*24 is given as “+++ (>50 = +++)”.

In the case of “42 (TYIGQGYII; listed as Homo sapiens) [compound 42]”, in the test with CD8+ T cells, the donors entry was “++++ (>=70% = ++++)” and the wells entry is given as “+ (<20% = +)”. Also, in the test on HLA-A*24, the Peptide exchange entry is reported as “+++ (>50 = +++)”.

Take “43 (AYIKNGQLF; listed as Homo sapiens) [compound 43]”: the Peptide exchange entry in the test on HLA-A*24 was “+++ (>50 = +++)”.

With “44 (VYNTVSEGTHF; listed as Homo sapiens) [compound 44]”, the Peptide exchange result in the test with HLA-A*24 was “+++ (>50 = +++)”.

Regarding “45 (RYFKTPRKF; listed as Homo sapiens) [compound 45]”, in the test with HLA-A*24, the Peptide exchange result is on record as “++ (>20% = ++)”.

Take “47 (SYTPVLNQF; listed as Homo sapiens) [compound 47]”: in the test on HLA-A*24, the Peptide exchange entry was “++++ (>75% = ++++)”.

“48 (AWAPKPYHKF; listed as Homo sapiens) [compound 48]”: the Peptide exchange entry in the test with HLA-A*24 is “+++ (>50 = +++)”.

“52 (ALGDLVQSV; listed as Homo sapiens) [compound 52]”: the Peptide exchange entry in the test with HLA-A*02 is listed as “+++ (>50 = +++)”.

For “53 (YLLKDKGEYTL; listed as Homo sapiens) [compound 53]”, in the test with HLA-A*02, the Peptide exchange result is “+++ (>50 = +++)”.

As for “54 (AYSEKVTEF; listed as Homo sapiens) [compound 54]”, in the test on HLA-A*24, the Peptide exchange result is listed as “+++ (>50 = +++)”.

Regarding “55 (LYFEKGEYF; listed as Homo sapiens) [compound 55]”, the Peptide exchange entry in the test on HLA-A*24 is “++++ (>75% = ++++)”.

Regarding “56 (LFHPEDTGQVF; listed as Homo sapiens) [compound 56]”, the Peptide exchange entry with HLA-A*24 is “++ (>20% = ++)”.

Consider “58 (GYIDKVRQL; listed as Homo sapiens) [compound 58]”, for which the Peptide exchange result in the test with HLA-A*24 is recorded as “++ (>20% = ++)”.

As for “59 (IYPDVTYAF; listed as Homo sapiens) [compound 59]”, in the test with HLA-A*24, the Peptide exchange entry is recorded as “+++ (>50 = +++)”.
